Test results taken from patent US20200199136A1, “PIKFYVE KINASE INHIBITORS” (ACURASTEM INC., priority 2017, published 2020).

The molecules below were run against PIKFYVE (Homo sapiens, UniProt Q9Y2I7) (assay: PIKFYVE assay (luciferase ADP-Glo kinase assay, Promega)).
PIKFYVE, sequence (Q9Y2I7 whole entry): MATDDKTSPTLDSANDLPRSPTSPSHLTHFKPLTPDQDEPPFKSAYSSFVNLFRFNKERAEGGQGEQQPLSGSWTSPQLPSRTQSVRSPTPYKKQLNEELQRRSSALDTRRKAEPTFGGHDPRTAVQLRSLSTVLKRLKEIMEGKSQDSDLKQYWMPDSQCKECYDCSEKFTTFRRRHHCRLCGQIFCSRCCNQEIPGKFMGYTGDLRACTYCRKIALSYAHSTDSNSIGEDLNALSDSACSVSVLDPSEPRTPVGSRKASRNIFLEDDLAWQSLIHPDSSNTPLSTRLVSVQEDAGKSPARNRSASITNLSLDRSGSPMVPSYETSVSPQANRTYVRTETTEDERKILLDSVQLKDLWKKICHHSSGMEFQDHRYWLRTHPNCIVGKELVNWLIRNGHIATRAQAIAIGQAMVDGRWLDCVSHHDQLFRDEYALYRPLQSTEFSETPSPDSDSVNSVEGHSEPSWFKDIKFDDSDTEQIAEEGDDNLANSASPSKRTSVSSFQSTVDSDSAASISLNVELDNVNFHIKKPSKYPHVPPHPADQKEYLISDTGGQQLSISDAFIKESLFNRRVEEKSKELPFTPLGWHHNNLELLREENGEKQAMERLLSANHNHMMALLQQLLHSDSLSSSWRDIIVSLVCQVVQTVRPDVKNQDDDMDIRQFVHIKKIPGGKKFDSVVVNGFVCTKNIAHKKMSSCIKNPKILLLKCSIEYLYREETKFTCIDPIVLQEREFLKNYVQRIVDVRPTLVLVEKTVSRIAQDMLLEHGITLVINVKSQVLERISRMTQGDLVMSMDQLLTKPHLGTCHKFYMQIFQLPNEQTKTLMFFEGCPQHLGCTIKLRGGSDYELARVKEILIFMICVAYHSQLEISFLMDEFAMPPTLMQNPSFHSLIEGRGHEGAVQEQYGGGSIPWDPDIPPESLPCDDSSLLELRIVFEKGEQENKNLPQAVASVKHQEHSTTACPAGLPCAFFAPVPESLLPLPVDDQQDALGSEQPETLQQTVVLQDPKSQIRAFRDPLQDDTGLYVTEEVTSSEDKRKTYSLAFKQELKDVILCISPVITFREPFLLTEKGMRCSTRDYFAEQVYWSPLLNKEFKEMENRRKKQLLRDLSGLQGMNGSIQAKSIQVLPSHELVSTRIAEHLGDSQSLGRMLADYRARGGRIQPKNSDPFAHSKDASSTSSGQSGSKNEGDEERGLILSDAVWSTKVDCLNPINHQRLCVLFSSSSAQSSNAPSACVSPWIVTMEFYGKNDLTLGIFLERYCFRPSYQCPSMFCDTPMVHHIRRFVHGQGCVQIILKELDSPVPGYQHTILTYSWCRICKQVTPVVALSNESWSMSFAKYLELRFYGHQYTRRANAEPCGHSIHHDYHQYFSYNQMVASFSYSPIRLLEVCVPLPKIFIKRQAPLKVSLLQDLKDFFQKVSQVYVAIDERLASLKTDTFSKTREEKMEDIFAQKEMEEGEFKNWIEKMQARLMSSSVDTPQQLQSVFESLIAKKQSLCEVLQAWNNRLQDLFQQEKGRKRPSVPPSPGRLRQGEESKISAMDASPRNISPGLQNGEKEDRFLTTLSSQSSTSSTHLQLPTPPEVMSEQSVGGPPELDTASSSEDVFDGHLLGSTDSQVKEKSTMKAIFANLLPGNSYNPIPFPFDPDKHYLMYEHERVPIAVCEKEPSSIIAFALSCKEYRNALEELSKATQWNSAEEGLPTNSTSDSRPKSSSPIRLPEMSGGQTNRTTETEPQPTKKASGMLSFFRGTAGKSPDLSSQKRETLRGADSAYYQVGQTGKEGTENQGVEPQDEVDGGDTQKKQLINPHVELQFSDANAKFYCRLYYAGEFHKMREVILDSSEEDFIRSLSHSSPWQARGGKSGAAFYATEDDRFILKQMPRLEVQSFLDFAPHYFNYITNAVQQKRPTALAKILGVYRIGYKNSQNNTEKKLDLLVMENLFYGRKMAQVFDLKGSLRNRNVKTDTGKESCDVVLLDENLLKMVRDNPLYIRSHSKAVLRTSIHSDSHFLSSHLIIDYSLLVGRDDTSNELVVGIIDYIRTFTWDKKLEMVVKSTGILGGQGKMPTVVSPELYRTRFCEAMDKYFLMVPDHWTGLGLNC
Format: biochemical
Protocol: The activity of Compounds 1-20 was measured using a PIKFYVE assay (luciferase ADP-Glo kinase assay available from Promega Corp. of Madison, Wis.).
Work on COc1cccc(-c2ccn(-c3cc(N4CC[C@H]5OCC[C@H]54)nc(OCCO)n3)n2)c1 [Compound 5, 2-((4-((3aR,6aR)-hexahydro-4H-furo[3,2-b]pyrrol-4-yl)-6-(3-(3-methoxyphenyl)-1H-pyrazol-1-yl)pyrimidin-2-yl)oxy)ethan-1-ol] yielded an IC50 of 101 to 1000 nM.
In the case of COc1cccc(-c2ccn(-c3cc(N4CC[C@H]5OCC[C@H]54)nc(OCC4CCCO4)n3)n2)c1 (stereo partly drawn) [Compound 1, (3aR,6aR)-4-(6-(3-(3-methoxyphenyl)-1H-pyrazol-1-yl)-2-((tetrahydrofuran-2-yl)methoxy)pyrimidin-4-yl)hexahydro-2H-furo[3,2-b]pyrrole], the IC50 is reported as 5 to 100 nM.
Molecule COc1cccc(-c2ccn(-c3cc(N4CC[C@H]5OCC[C@H]54)nc(OCCc4scnc4C)n3)n2)c1 [Compound 6, (3aR,6aR)-4-(6-(3-(3-methoxyphenyl)-1H-pyrazol-1-yl)-2-(2-(4-methylthiazol-5-yl)ethoxy)pyrimidin-4-yl)hexahydro-2H-furo[3,2-b]pyrrole] has an IC50 of 5 to 100 nM.
Cc1cccc(-n2ccc(-c3cc(N4CCOCC4)nc(OCC4CCCO4)n3)n2)c1 (stereo not shown) [Compound 13, 4-(2-((tetrahydrofuran-2-yl)methoxy)-6-(1-(m-tolyl)-1H-pyrazol-3-yl)pyrimidin-4-yl)morpholine] gave an IC50 of 5 to 100 nM.
COC1CCN(c2cc(-n3ccc(-c4cccc(C)c4)n3)nc(OCC3CCCO3)n2)C1 (stereo not shown) [Compound 15, 4-(3-methoxypyrrolidin-1-yl)-2-((tetrahydrofuran-2-yl)methoxy)-6-(3-(m-tolyl)-1H-pyrazol-1-yl)pyrimidine] was tested, and the IC50 was 1000 to 10000 nM.
COc1cccc(-c2ccn(-c3cc(N4CC[C@H]5OCC[C@H]54)nc(OCCC(O)CO)n3)n2)c1 (stereo partly drawn) [Compound 8, 4-((4-((3aR,6aR)-hexahydro-4H-furo[3,2-b]pyrrol-4-yl)-6-(3-(3-methoxyphenyl)-1H-pyrazol-1-yl)pyrimidin-2-yl)oxy)butane-1,2-diol] was tested, and the IC50 was 5 to 100 nM.
Molecule Cc1cccc(-c2ccn(-c3cc(N4CC[C@H]5OCC[C@H]54)nc(CCc4ncccn4)n3)n2)c1 [Compound 19] has an IC50 of 5 to 100 nM.
With Cc1cccc(-c2csc(-c3cc(N4CC[C@H]5OCC[C@H]54)nc(OCC4CCCO4)n3)n2)c1 (stereo partly drawn) [Compound 11, (3aR,6aR)-4-(2-((tetrahydrofuran-2-yl)methoxy)-6-(4-(m-tolyl)thiazol-2-yl)pyrimidin-4-yl)hexahydro-2H-furo[3,2-b]pyrrole] the IC50 was 101 to 1000 nM.
With Cc1cccc(-c2ccn(-c3cc(N4CCCOCC4)nc(OCC4CCCO4)n3)n2)c1 (stereo not shown) [Compound 14, 4-(2-((tetrahydrofuran-2-yl)methoxy)-6-(3-(m-tolyl)-1H-pyrazol-1-yl)pyrimidin-4-yl)-1,4-oxazepane] the IC50 was 101 to 1000 nM.
With c1ccc(-c2cn(-c3cc(N4CCOCC4)nc(OCCc4ccccn4)n3)cn2)cc1 [Compound 10, 4-(6-(4-phenyl-1H-imidazol-1-yl)-2-(2-(pyridin-2-yl)ethoxy)pyrimidin-4-yl)morpholine] the IC50 was 1000 to 10000 nM.
COc1cccc(-c2ccn(-c3cc(N4CCOCC4)nc(OCCC4CCOCC4)n3)n2)c1 [Compound 3, 4-(6-(3-(3-methoxyphenyl)-1H-pyrazol-1-yl)-2-(2-(tetrahydro-2H-pyran-4-yl)ethoxy)pyrimidin-4-yl)morpholine] showed an IC50 of less than 5 nM.
In the case of COc1cccc(-c2ccn(-c3cc(N4CCOCC4)nc(OCCC(O)CO)n3)n2)c1 (stereo not shown) [Compound 9, 4-((4-(3-(3-methoxyphenyl)-1H-pyrazol-1-yl)-6-morpholinopyrimidin-2-yl)oxy)butane-1,2-diol], the IC50 is reported as less than 5 nM.
Work on COc1cccc(-c2ccn(-c3cc(N4CCOCC4)nc(OCCc4scnc4C)n3)n2)c1 [Compound 7, 4-(6-(3-(3-methoxyphenyl)-1H-pyrazol-1-yl)-2-(2-(4-methylthiazol-5-yl)ethoxy)pyrimidin-4-yl)morpholine] yielded an IC50 of less than 5 nM.
Cc1cccc(-c2ccn(-c3cc(N4CCOCC4CO)nc(CCC4CCCO4)n3)n2)c1 (stereo not shown) [Compound 20, (4-(2-(2-(tetrahydrofuran-2-yl)ethyl)-6-(3-(m-tolyl)-1H-pyrazol-1-yl)pyrimidin-4-yl)morpholin-3-yl)methanol] gave an IC50 of 5 to 100 nM.
For COc1cccc(-c2ccn(-c3cc(N4CC[C@H]5OCC[C@H]54)nc(OCCc4ccccn4)n3)n2)c1 [Compound 16, (3aR,6aR)-4-(6-(3-(3-methoxyphenyl)-1H-pyrazol-1-yl)-2-(2-(pyridin-2-yl)ethoxy)pyrimidin-4-yl)hexahydro-2H-furo[3,2-b]pyrrole], the IC50 was 101 to 1000 nM.
With COc1cccc(-c2ccn(-c3cc(N4CCOCC4)nc(OCC4CCCO4)n3)n2)c1 (stereo not shown) [Compound 2, 4-(6-(3-(3-methoxyphenyl)-1H-pyrazol-1-yl)-2-((tetrahydrofuran-2-yl)methoxy)pyrimidin-4-yl)morpholine] the IC50 was less than 5 nM.
Cc1cccc(-c2ccn(-c3cc(C4CCOC4)nc(OCC4CCCO4)n3)n2)c1 (stereo not shown) [Compound 17, 2-((tetrahydrofuran-2-yl)methoxy)-4-(tetrahydrofuran-3-yl)-6-(3-(m-tolyl)-1H-pyrazol-1-yl)pyrimidine] was tested, and the IC50 was 5 to 100 nM.
c1ccc(-c2ccn(-c3cc(N4CC[C@H]5OCC[C@H]54)nc(OCCc4ccccn4)n3)n2)cc1 [Compound 4, (3aR,6aR)-4-(6-(3-phenyl-1H-pyrazol-1-yl)-2-(2-(pyridin-2-yl)ethoxy)pyrimidin-4-yl)hexahydro-2H-furo[3,2-b]pyrrole] gave an IC50 of 101 to 1000 nM.
With Cc1cccc(-c2csc(-c3cc(N4CCOCC4)nc(OCC4CCCO4)n3)n2)c1 (stereo not shown) [Compound 12, 4-(2-((tetrahydrofuran-2-yl)methoxy)-6-(4-(m-tolyl)thiazol-2-yl)pyrimidin-4-yl)morpholine] the IC50 was 5 to 100 nM.
